Legend:
R. toruloides DAO [1] = biological target: T1, R. toruloides DAO (Rhodotorula toruloides, UniProt P80324); assay: activity of purified DAO on amino acid substrates and Ceph C (relative activity, apparent Km); format: biochemical; parameters: made in house; host or cells: R. toruloides cells (native source, not recombinant); details: for relative activity of the purified DAO on substrate / activity of the purified DAO on substrate: purified R. toruloides DAO
T1 sequence (P80324 25-368): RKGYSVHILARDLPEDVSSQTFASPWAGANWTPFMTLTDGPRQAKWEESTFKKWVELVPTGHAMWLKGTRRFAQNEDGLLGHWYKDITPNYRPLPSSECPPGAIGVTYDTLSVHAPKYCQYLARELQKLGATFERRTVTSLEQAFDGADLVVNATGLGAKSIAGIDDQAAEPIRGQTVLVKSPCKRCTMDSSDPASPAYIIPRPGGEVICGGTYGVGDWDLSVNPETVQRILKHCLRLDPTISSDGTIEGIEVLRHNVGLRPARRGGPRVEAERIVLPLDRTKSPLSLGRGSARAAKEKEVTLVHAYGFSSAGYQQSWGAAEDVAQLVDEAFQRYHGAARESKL

R. toruloides DAO [2] = biological target: T1, R. toruloides DAO
R. toruloides DAO [3] = biological target: T1, R. toruloides DAO; assay: biochemical
[4] = substrate: CSCC[C@@H](N)C(=O)O; assay: purified protein, by the assay type; details: other: purified R. toruloides DAO
[5] = substrate: C[C@@H](N)C(=O)O; assay: purified protein, by the assay type; details: other: purified R. toruloides DAO
[6] = substrate: [H][C@]12SCC(COC(C)=O)=C(C(=O)O)N1C(=O)[C@H]2NC(=O)CCC[C@@H](N)C(=O)O; assay: purified protein, by the assay type; format: biochemical; details: other: purified R. toruloides DAO
[7] = substrate: N[C@H](CO)C(=O)O; assay: purified protein, by the assay type; format: biochemical; details: other: purified R. toruloides DAO
[8] = substrate: N[C@H](Cc1c[nH]c2ccccc12)C(=O)O; assay: purified protein, by the assay type; format: biochemical; details: other: purified R. toruloides DAO

For N[C@H](CCC(=O)O)C(=O)O [D-glutamic acid], the “relative activity of the purified DAO on substrate” value (shortened to “relative activity”) (R. toruloides DAO [1]) was < 20 % of maximal.

In the case of N[C@H](CC(=O)O)C(=O)O [D-aspartic acid], the “relative activity” value (R. toruloides DAO [1]) is reported as < 20 % of maximal.

In the case of C[C@H](O)[C@@H](N)C(=O)O [D-threonine], the “relative activity” value (R. toruloides DAO [1]) is reported as < 20 % of maximal.

With N[C@@H](Cc1ccccc1)C(=O)O [L-phenylalanine] the “activity of the purified DAO on substrate” value (R. toruloides DAO [1]) was “No activity”.

For O=C(O)[C@@H]1CCCN1 [L-proline], the “activity of the purified DAO on substrate” value (R. toruloides DAO [1]) was “No activity”.

With CSCC[C@H](N)C(=O)O [L-methionine] the “activity of the purified DAO on substrate” value (R. toruloides DAO [1]) was “No activity”.

N[C@H](Cc1c[nH]c2ccccc12)C(=O)O [D-tryptophan] was tested, and the “activity of the purified DAO on substrate” value (R. toruloides DAO [1]) was “best substrate”.

In the case of O=C(O)c1cccnc1 [nicotinic acid], the “enzyme inhibited in the presence of aromatic acid” value (shortened to “enzyme inhibited in the presence”) (R. toruloides DAO [2]) is reported as 21%.

For Nc1ccc(C(=O)O)cc1 [p-aminobenzoic acid], the Ki (R. toruloides DAO [3]) was 300 µM and the “enzyme inhibited in the presence” value (R. toruloides DAO [2]) was 72%.

CC(=O)OCC1=C(C(=O)O)N2C(=O)[C@@H](NC(=O)CCC[C@@H](N)C(=O)O)[C@H]2SC1 [Ceph C, cephalosporin C] was tested, and the “activity on Ceph C as compared with activity against D-alanine” value (R. toruloides DAO [1]; purified DAO, SEQ ID NO: 3) was 95%.

C[C@H](N)C(=O)O [L-alanine] was tested, and the “activity of the purified DAO on substrate” value (R. toruloides DAO [1]) was “No activity”.

With NCCCC[C@@H](N)C(=O)O [D-lysine] the “relative activity” value (R. toruloides DAO [1]) was < 20 % of maximal.

O=C(O)c1ccccc1 [benzoic acid] was tested, and the “enzyme inhibited in the presence” value (R. toruloides DAO [2]) was 49%.

B1: R. toruloides DAO (Rhodotorula toruloides) (protein)
chain: T1 sequence (P80324 25-368)
notes: made in house; host or cells: R. toruloides cells (native source, not recombinant)
In the case of B1, the Km [4] is reported as 220 µM, the Km [5] is reported as 680 µM and the Km [6] is reported as 650 µM. It also gave a Km [7] of 3400 µM and a Km [8] of 180 µM.
